Assay results: PMC2206373, “Identification of an altered peptide ligand based on the endogenously presented, rheumatoid arthritis-associated, human cartilage glycoprotein-39(263–275) epitope: an MHC anchor variant peptide for immune modulation” (Arthritis Research & Therapy, 2007)
Where two headings read alike, the source gives them in different places. Non-standard residues stand in square brackets, D forms with d. Residues, ends and D or L forms follow the SMILES beside them. No end group written: not given here. *: point of attachment. Phe(4-NO2) = N[C@@H](Cc1ccc([N+](=O)[O-])cc1)C(=O)O; Phe(4-Cl) = N[C@@H](Cc1ccc(Cl)cc1)C(=O)O; Phe(4-F) = N[C@@H](Cc1ccc(F)cc1)C(=O)O; Phe(4-I) = N[C@@H](Cc1ccc(I)cc1)C(=O)O; hPhe = N[C@@H](CCc1ccccc1)C(=O)O; 3Pal = N[C@@H](Cc1cccnc1)C(=O)O; 2Thi = N[C@@H](Cc1cccs1)C(=O)O; Cha = N[C@@H](CC1CCCCC1)C(=O)O; Bn = c1ccc(C*)cc1

How the values were obtained:
HLA-DR4(B1*0401) = HLA-DR4(B1*0401) (Homo sapiens, UniProt P01903+P01911, A100K/A169T/F76Y/I96L/K127E/L162R/M171V/N62H/P40V/Q125Y/R42H/S133A/S149N/S66Y/V115G/V209L/W38E); assay: HLA-DR4 competition peptide binding assay; details: competition with biotinylated HA307-319 (Y309F) 50 nM, purified HLA-DR4 30 nM, pH 5, 48 h, room temperature
Description: HLA-DR bound marker peptide was separated from free marker peptide and the amount of bound marker peptide was detected and quantified by enhanced chemoluminescense. Inhibition curves were generated and the IC50 was determined. The concentration of competitor peptide inducing 50% inhibition of marker peptide binding was determined, and expressed as the 50% inhibitory concentration (IC50 in μM).

T cell hybridoma 5G11 = assay: T hybridoma 5G11 IL-2 response; format: cell-based, mouse; details: Figure 1; IL-2 production, DRB1*0401 BLCL as APC; duplicate or triplicate; background 29,203 counts; ±30% of WT response = super/partial agonist
Description: (§1) The T cell hybridomas, provided by G Sonderstrup (Stanford, CA, USA), were generated as described. In brief, human CD4, HLA-DRA*101/HLA-DRB*0401 triple transgenic (HLA-DR4trg) mice (devoid of I-Aβ) were immunized in the footpad with 50 μg of purified HC gp-39 mixed in incomplete Freund's adjuvant (IFA). Draining lymph nodes were isolated and T-cell hybridomas were generated by polyethylene glycol fusion of primed and in vitro antigen-restimulated lymph node cells with the AKR BW5147 fusion partner. Following fusion, growth-positive hybridoma wells were screened for reactivity to HC gp-39 and a set of 55 peptides (16 amino acids in length) covering the entire HC gp-39 sequence. HLA-DR4(B1*0401)-restricted hybridomas responsive to both the HC gp-39 protein and the immunodominant epitope 263–275 of HC gp-39 (for example, 5G11, 8B12, 14G11 and 20H5) were cloned, subcloned, characterised and selected for further study.
(§2) HC gp-39-specific IL-2 production by T hybridomas was measured in wells of round-bottomed microtiter plates. Hybridoma cells (2 to 5 × 10^4) and irradiated APC (0.5 to 1 × 10^5; 12,000 to 16,000 RAD) from the B lymphoblastoid cell line (BLCL) carrying the DRB1*0401 specificity were incubated in 150 μl volumes. Antigen was added in 50 μl volumes to duplicate wells. After 48 h, 100 μl of the culture supernatant was assayed for IL-2 production using a sandwich ELISA with Pharmingen antibodies specific for mouse IL-2. The antigen sensitivity of the hybridomas to both peptide and protein was determined (Figure 2). […] In later assays, an excess of peptide or APL (10 μg/ml), inducing maximal responses in all hybridomas, was tested.

T cell hybridoma 14G11 = assay: T hybridoma 14G11 IL-2 response; format: cell-based, mouse; details: Figure 1; IL-2 production, DRB1*0401 BLCL as APC; duplicate or triplicate; background 7,152 counts; ±30% of WT response = super/partial agonist
Description: as §1, §2

T cell hybridoma 8B12 = assay: T hybridoma 8B12 IL-2 response; format: cell-based, mouse; details: Figure 1; IL-2 production, DRB1*0401 BLCL as APC; duplicate or triplicate; background 16,288 counts; ±30% of WT response = super/partial agonist
Description: as §1, §2

[1] = Table 2, read-out: HLA-DR binding IC50
[2] = Figure 1, read-out: DRB1*0401 binding IC50
[3] = Table 1, geometric mean of two experiments, read-out: HLA-DR binding IC50

Compound | IC50 (HLA-DR4(B1*0401); [1]) | IC50 (HLA-DR4(B1*0401); [2]) | T hybridoma (SI) 5G11 (T cell hybridoma 5G11) | further results
RAFTLASSETGVG [Compound 11] | 100 nM | – | – | –
CC(C)C[C@H](NC(=O)[C@@H](NC(=O)[C@H](Cc1cccnc1)NC(=O)[C@H](CO)NC(=O)[C@@H](N)CCCNC(=N)N)[C@@H](C)O)C(=O)N[C@@H](C)C(=O)N[C@@H](CO)C(=O)N[C@@H](CO)C(=O)N[C@@H](CCC(=O)O)C(=O)N[C@H](C(=O)NCC(=O)N[C@H](C(=O)NCC(=O)O)C(C)C)[C@@H](C)O [Compound 29] (H-RS[3Pal]TLASSETGVG-OH) | – | 16 nM | 23 SI | T hybridoma (SI) 14G11 (T cell hybridoma 14G11): 44 SI; T hybridoma (SI) 8B12 (T cell hybridoma 8B12): 19 SI
RSFTLASSATGVG [Compound 18] | 40 nM | – | – | –
SFTLASSETGVG [Compound 5] | – | – | – | IC50 (HLA-DR4(B1*0401); [3]): 90 nM
RSFTLASSETG [Compound 3] | – | – | – | IC50 (HLA-DR4(B1*0401); [3]): 200 nM
CC(C)C[C@H](NC(=O)[C@@H](NC(=O)[C@H](COCc1ccccc1)NC(=O)[C@H](CO)NC(=O)[C@@H](N)CCCNC(=N)N)[C@@H](C)O)C(=O)N[C@@H](C)C(=O)N[C@@H](CO)C(=O)N[C@@H](CO)C(=O)N[C@@H](CCC(=O)O)C(=O)N[C@H](C(=O)NCC(=O)N[C@H](C(=O)NCC(=O)O)C(C)C)[C@@H](C)O [Compound 35] (H-RSS(Bn)TLASSETGVG-OH) | – | 7 nM | 28 SI | T hybridoma (SI) 14G11 (T cell hybridoma 14G11): 31 SI; T hybridoma (SI) 8B12 (T cell hybridoma 8B12): 20 SI
ASFTLASSETGVG [Compound 10] | 100 nM | – | – | –
CC(C)C[C@H](NC(=O)[C@@H](NC(=O)[C@H](Cc1ccc(F)cc1)NC(=O)[C@H](CO)NC(=O)[C@@H](N)CCCNC(=N)N)[C@@H](C)O)C(=O)N[C@@H](C)C(=O)N[C@@H](CO)C(=O)N[C@@H](CO)C(=O)N[C@@H](CCC(=O)O)C(=O)N[C@H](C(=O)NCC(=O)N[C@H](C(=O)NCC(=O)O)C(C)C)[C@@H](C)O [Compound 30] (H-RS[Phe(4-F)]TLASSETGVG-OH) | – | 12 nM | 29 SI | T hybridoma (SI) 14G11 (T cell hybridoma 14G11): 27 SI; T hybridoma (SI) 8B12 (T cell hybridoma 8B12): 17 SI
RSFALASSETGVG [Compound 13] | 60 nM | – | – | –
RSFTLASSET [Compound 4] | – | – | – | IC50 (HLA-DR4(B1*0401); [3]): 7000 nM
CC(C)C[C@H](NC(=O)[C@@H](NC(=O)[C@H](Cc1ccc(I)cc1)NC(=O)[C@H](CO)NC(=O)[C@@H](N)CCCNC(=N)N)[C@@H](C)O)C(=O)N[C@@H](C)C(=O)N[C@@H](CO)C(=O)N[C@@H](CO)C(=O)N[C@@H](CCC(=O)O)C(=O)N[C@H](C(=O)NCC(=O)N[C@H](C(=O)NCC(=O)O)C(C)C)[C@@H](C)O [Compound 33] (H-RS[Phe(4-I)]TLASSETGVG-OH) | – | < 9 nM | 26 SI | –
RSFTLASSETGAG [Compound 21] | 60 nM | – | – | –
CC(C)C[C@H](NC(=O)[C@@H](NC(=O)[C@H](Cc1cccs1)NC(=O)[C@H](CO)NC(=O)[C@@H](N)CCCNC(=N)N)[C@@H](C)O)C(=O)N[C@@H](C)C(=O)N[C@@H](CO)C(=O)N[C@@H](CO)C(=O)N[C@@H](CCC(=O)O)C(=O)N[C@H](C(=O)NCC(=O)N[C@H](C(=O)NCC(=O)O)C(C)C)[C@@H](C)O [Compound 26] (H-RS[2Thi]TLASSETGVG-OH) | – | 9 nM | 23 SI | T hybridoma (SI) 14G11 (T cell hybridoma 14G11): 31 SI; T hybridoma (SI) 8B12 (T cell hybridoma 8B12): 18 SI
SFTLASSETGV [Compound 9] | – | – | – | IC50 (HLA-DR4(B1*0401); [3]): 120 nM
RSFTLASSETGVA [Compound 22] | 50 nM | – | – | –
CC(C)C[C@H](NC(=O)[C@@H](NC(=O)[C@H](CCc1ccccc1)NC(=O)[C@H](CO)NC(=O)[C@@H](N)CCCNC(=N)N)[C@@H](C)O)C(=O)N[C@@H](C)C(=O)N[C@@H](CO)C(=O)N[C@@H](CO)C(=O)N[C@@H](CCC(=O)O)C(=O)N[C@H](C(=O)NCC(=O)N[C@H](C(=O)NCC(=O)O)C(C)C)[C@@H](C)O [Compound 24] (H-RS[hPhe]TLASSETGVG-OH) | – | 15 nM | – | –
RSFTAASSETGVG [Compound 14] | 80 nM | – | – | –
RSFTLAASETGVG [Compound 16] | 50 nM | – | – | –
RSFTLASSETGV [Compound 2] | – | – | – | IC50 (HLA-DR4(B1*0401); [3]): 90 nM
CC(C)C[C@H](NC(=O)[C@@H](NC(=O)[C@H](Cc1ccc(Cl)cc1)NC(=O)[C@H](CO)NC(=O)[C@@H](N)CCCNC(=N)N)[C@@H](C)O)C(=O)N[C@@H](C)C(=O)N[C@@H](CO)C(=O)N[C@@H](CO)C(=O)N[C@@H](CCC(=O)O)C(=O)N[C@H](C(=O)NCC(=O)N[C@H](C(=O)NCC(=O)O)C(C)C)[C@@H](C)O [Compound 31] (H-RS[Phe(4-Cl)]TLASSETGVG-OH) | – | 9 nM | 32 SI | T hybridoma (SI) 14G11 (T cell hybridoma 14G11): 29 SI; T hybridoma (SI) 8B12 (T cell hybridoma 8B12): 14 SI
CC(C)C[C@H](NC(=O)[C@@H](NC(=O)[C@H](CC1CCCCC1)NC(=O)[C@H](CO)NC(=O)[C@@H](N)CCCNC(=N)N)[C@@H](C)O)C(=O)N[C@@H](C)C(=O)N[C@@H](CO)C(=O)N[C@@H](CO)C(=O)N[C@@H](CCC(=O)O)C(=O)N[C@H](C(=O)NCC(=O)N[C@H](C(=O)NCC(=O)O)C(C)C)[C@@H](C)O [Compound 25] (H-RS[Cha]TLASSETGVG-OH) | – | 7 nM | 32 SI | T hybridoma (SI) 14G11 (T cell hybridoma 14G11): 26 SI; T hybridoma (SI) 8B12 (T cell hybridoma 8B12): 18 SI
CC(C)C[C@H](NC(=O)[C@@H](NC(=O)[C@H](Cc1ccc([N+](=O)[O-])cc1)NC(=O)[C@H](CO)NC(=O)[C@@H](N)CCCNC(=N)N)[C@@H](C)O)C(=O)N[C@@H](C)C(=O)N[C@@H](CO)C(=O)N[C@@H](CO)C(=O)N[C@@H](CCC(=O)O)C(=O)N[C@H](C(=O)NCC(=O)N[C@H](C(=O)NCC(=O)O)C(C)C)[C@@H](C)O [Compound 34] (H-RS[Phe(4-NO2)]TLASSETGVG-OH) | – | 13 nM | 32 SI | T hybridoma (SI) 14G11 (T cell hybridoma 14G11): 33 SI; T hybridoma (SI) 8B12 (T cell hybridoma 8B12): 20 SI
RSFTLASSEAGVG [Compound 19] | 40 nM | – | – | –
RSFTLASSETAVG [Compound 20] | 50 nM | – | – | –
FTLASSETGVG [Compound 6] | – | – | – | IC50 (HLA-DR4(B1*0401); [3]): 110 nM
RSFTLASAETGVG [Compound 17] | 50 nM | – | – | –
